Measured values as given in patent publication US9895344B2, “Treating various disorders with 7,8-dihydroxyflavone and derivatives thereof” (EMORY UNIVERSITY, priority 2008, dated 2018).

Tests used:
TrkB F616A = biological target: T1, TrkB F616A (Mus musculus, UniProt P15209, F616A); assay: TrkB phosphorylation in cortical neurons from TrkB F616A knockin mice; assay type: cell-based; settings: inhibitor 100 nM, pretreated 30 minutes
T1 construct: endogenous in cells; host or cells: cortical neurons of TrkB F616A knock-in mice
T1 sequence (P15209 32-821 F616A): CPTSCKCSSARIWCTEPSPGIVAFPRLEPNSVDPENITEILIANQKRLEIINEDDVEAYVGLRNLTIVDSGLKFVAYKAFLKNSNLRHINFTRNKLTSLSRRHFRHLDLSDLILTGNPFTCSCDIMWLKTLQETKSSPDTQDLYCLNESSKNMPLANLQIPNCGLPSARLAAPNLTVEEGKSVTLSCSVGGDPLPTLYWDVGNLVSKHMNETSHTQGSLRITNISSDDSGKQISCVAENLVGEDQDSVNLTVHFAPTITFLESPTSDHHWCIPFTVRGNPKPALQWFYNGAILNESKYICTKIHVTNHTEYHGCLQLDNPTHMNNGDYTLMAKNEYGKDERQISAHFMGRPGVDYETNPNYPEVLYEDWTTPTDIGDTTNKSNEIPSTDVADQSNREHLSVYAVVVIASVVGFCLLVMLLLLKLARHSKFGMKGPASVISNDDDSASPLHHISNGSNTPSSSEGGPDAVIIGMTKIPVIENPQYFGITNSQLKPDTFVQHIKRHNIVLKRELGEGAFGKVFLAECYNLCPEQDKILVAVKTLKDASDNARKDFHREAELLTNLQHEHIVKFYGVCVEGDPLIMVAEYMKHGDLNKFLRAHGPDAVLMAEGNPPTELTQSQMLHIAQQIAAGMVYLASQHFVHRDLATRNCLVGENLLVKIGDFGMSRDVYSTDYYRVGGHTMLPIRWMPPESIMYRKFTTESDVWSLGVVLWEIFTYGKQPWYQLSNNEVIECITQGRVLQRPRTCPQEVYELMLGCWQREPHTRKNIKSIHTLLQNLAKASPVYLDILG
Procedure: (§1) To explore whether the neuroprotective action of 7,8-dihydroxyflavone is dependent on TrkB activation in vivo, TrkB F616A knockin mice were used. […] To further assess whether 7,8-dihydroxyflavone can mimic BDNF, cortical neurons were prepared from TrkB F616A knockin mice. The cortical neurons were pretreated for 30 minutes with either K252a Trk tyrosine kinase inhibitor (100 nM) or 1NMPP1 inhibitor (100 nM) followed by 0.5 μM 7,8-dihydroxyflavone for 30 minutes.

Akt and Erk1/2 = Akt and Erk1/2 activation in cortical neurons from TrkB F616A knockin mice; assay type: cell-based; settings: inhibitor 100 nM
Procedure: as §1

TrkB [1] = biological target: T2, TrkB (Rattus norvegicus, UniProt Q63604); assay: Western analysis of TrkB activation in hippocampal neurons; assay type: cell-based; design: endogenous in cells; host or cells: primary hippocampal neurons; settings: FIG. 10
T2 sequence (Q63604 32-821): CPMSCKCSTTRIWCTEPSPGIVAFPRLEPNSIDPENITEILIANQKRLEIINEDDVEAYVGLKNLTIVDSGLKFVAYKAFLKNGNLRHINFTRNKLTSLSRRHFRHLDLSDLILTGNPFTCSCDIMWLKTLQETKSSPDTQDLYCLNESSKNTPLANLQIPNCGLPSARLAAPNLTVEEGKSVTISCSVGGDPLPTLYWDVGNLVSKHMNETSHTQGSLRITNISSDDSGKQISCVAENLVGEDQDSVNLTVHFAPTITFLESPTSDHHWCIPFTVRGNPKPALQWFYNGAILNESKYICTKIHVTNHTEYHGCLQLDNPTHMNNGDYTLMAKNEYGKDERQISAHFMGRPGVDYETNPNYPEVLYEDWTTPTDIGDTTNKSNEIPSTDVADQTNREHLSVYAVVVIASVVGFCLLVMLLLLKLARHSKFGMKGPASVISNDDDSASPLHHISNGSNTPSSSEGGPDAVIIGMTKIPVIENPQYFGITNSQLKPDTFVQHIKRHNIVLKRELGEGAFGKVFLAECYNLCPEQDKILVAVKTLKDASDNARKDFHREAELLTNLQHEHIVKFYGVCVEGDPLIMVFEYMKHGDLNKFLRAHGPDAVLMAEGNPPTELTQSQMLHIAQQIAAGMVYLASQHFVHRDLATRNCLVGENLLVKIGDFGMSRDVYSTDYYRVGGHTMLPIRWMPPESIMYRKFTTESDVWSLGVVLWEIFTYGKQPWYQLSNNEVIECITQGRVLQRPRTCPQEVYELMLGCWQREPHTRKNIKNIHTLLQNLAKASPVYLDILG
Procedure: To further examine whether 7,8-dihydroxyflavone can stimulate TrkB-mediated downstream signaling cascades, Western analysis was performed.
To further test that the stimulatory effect of 7,8-dihydroxyflavone is mediated through TrkB, cells were either untreated or treated with K252a, a selective inhibitor of the tyrosine kinase activity of the Trk family of neutrophin receptors.

TrkB [2] = biological target: T2, TrkB; assay: TrkB activation in primary cortical neurons (p-TrkB Y817 immunoblotting); assay type: cell-based; design: endogenous in cells; host or cells: primary cortical neurons
Procedure: Primary cultured rat cortical neurons were prepared as follows. E17 rat pups were decapitated and cortex was extirpated, cross chopped, and suspended by pipetting for separation in 5% fetal calf serum (FCS), 5% horse serum (HS) DMEM. The cell suspension was then centrifuged at 250×g for 5 minutes. This operation was repeated again. Cells were seeded into polyethyleneimine-coated 10 cm^2 dishes and 12-well plates including coated-coverslips and incubated at 37° C. in 5% CO2/95% air. After 3 hours, the culture medium was changed to Neurobasal containing B-27 supplement (Invitrogen; Carlsbad, Calif.) and incubated for 4 days. For maintenance, half of the culture medium was changed to fresh Neurobasal/B27 every 4 days. After 1 week, the dished cultured neurons were ready for use.
To compare the TrkB activation by the synthetic compounds of Examples 9 and 10 (see FIG. 26), primary cortical cultures were prepared. The cortical neurons were treated with 500 nM of various compounds for 30 min and collected the cell lysates. […] Replacing the H-bond acceptor O atom with hydrogen bond donor NH reduced its stimulatory effect. […] In comparison, 7,8-DHF provoked TrkB activation with the minimal concentration of 100 nM (FIG. 27, right panels).

TrkB [3] = biological target: T3, TrkB (Mus musculus, UniProt P15209); assay: Time course of TrkB activation in mouse brain; assay type: in vivo, C57BL/6J mice
T3 construct: from tissue; host or cells: mouse brain
T3 sequence (P15209 32-821): as the sequence (P15209 32-821 F616A) above, with A585F counted along it
Procedure: To compare the stimulatory effect on TrkB receptor in mouse brain, 1 mg/kg of these compounds was injected into C57BL/6J mice and monitored TrkB activation at different time points (see FIG. 28). […] In contrast, 7,8-DHF triggered TrkB activation 2 h after oral injection and peaked at 4 h and TrkB activity progressively faded away. The TrkB activity was demonstrable even at 16 h (FIG. 28).

[4] = tested on: KA-induced caspase-3 activation; assay: KA-induced neuronal cell death in TrkB F616A mice, oral TrkB agonists; assay type: in vivo, TrkB F616A knock-in mice
Procedure: TrkB F616A knockin mice (2-3 months old) were fed 1NMPP1 (25 μM) in drinking water one day before pharmacological reagent treatment. The next day, the mice were orally injected with 7,8-DHF or 4′-DMA-7,8-DHF (5 mg/kg) 4 hours before kainic acid (20 mg/kg). The control mice were injected with saline, 1NMPP1, kainic acid alone or administrated 7,8-DHF or 4′-DMA-7,8-DHF 4 hours before kainic acid. In 4 days, the mice were sacrificed and brains were homogenized and ultra-centrifuged. The supernatant (40 μg) was employed for SDS-PAGE and immunoblotting analysis with indicated antibodies, respectively.
To explore whether the neuroprotective effect of these small molecules is dependent on TrkB activation in vivo, TrkB F616A knock-in mice were used.

[5] = Toxicity after 3-week chronic treatment (organ pathology, complete blood count); assay type: in vivo, mice; settings: mouse, in vivo
Procedure: To explore whether 4′-dimethylamino-7,8-dihydroxyflavone and 7,8-dihydroxyflavone have any intolerable toxicity, the major organs from mice treated with both compounds at 5 mg/kg/day for 3 weeks were analyzed.

caspase-3 activation = assay: Active caspase-3 ELISA in glutamate-treated cortical neurons; assay type: cell-based, rat; settings: 50 μM glutamate for 16 hours
Procedure: To quantitatively compare the anti-apoptotic activity of 7,8-DHF and 4′-DMA-7,8-DHF, cortical neurons were prepared from E16 rat embryonic cells and pretreated with various indicated concentrations of 4′-DMA-7,8-DHF and 7,8-DHF for 30 min, followed by 50 μM glutamate for 16 hours. The cell lysates were quantitatively analyzed with an active caspse-3 ELISA.

immobility = assay: Forced swim test after 21 days oral treatment; assay type: in vivo, C57BL/6J mice; settings: 5 mg/kg, oral injection, FIG. 34
Procedure: Adult male mice (2-3 months old) were randomly submitted to a forced swim test without a pre-swim. Saline, 4′-DMA-7,8-DHF and 7,8-DHF (5 mg/kg) were orally injected for 21 days. The mice were allowed to adapt to the test room for 2 days. The mice were placed in a clear glass cylinder with a diameter of 16 cm, half-filled with clear water at 24° C.
(§2) To explore whether 4′-DMA-7,8-DHF and 7,8-DHF have any antidepressant effect, a forced swim test (6 minutes, immobility recorded in the last 4 minutes) was conducted after chronic treatment of male C57BL/6J mice (8 mice/group) for 21 days via oral injection.

TrkB [6] = biological target: T3, TrkB; assay: Immunoblotting of brain lysates from forced swim test mice: TrkB; assay type: in vivo; settings: 5 mg/kg, 21 days oral, anti-p-TrkB 817, FIG. 35
Procedure: as §2

[7] = tested on: KA-induced neuronal apoptosis; assay: Kainic acid time course assay, oral TrkB agonists (caspase-3 immunoblot of brain lysates); assay type: in vivo, C57BL/6J mice; settings: 1 mg/kg orally, KA 20 mg/kg i.p., FIG. 30 left
Procedure: Male C57BL/6 mice age 60 days were orally injected with a single dose of 4′-DMA-7,8-DHF or 7,8-DHF (1 mg/kg each). KA (20 mg/kg) was i.p. injected. Animals were continually monitored for 2 hours for the onset of seizure activity. At 0, 4 and 8 hours following TrkB agonist treatment, the animals were sacrificed and the brain lysates were analyzed by immunoblotting with p-TrkB-Y817, active caspase-3 and total TrkB antibodies.
To investigate whether these compounds exert any neuroprotective effects in animals, a time course assay was conducted.

[8] = tested on: progenitor proliferation in hippocampus; assay: Neurogenesis analysis in hippocampus (BrdU); assay type: in vivo, C57BL/6J mice; settings: 5 mg/kg daily for 21 days, compared to vehicle control, FIGS. 32 and 33
Procedure: Adult male mice (2-3 months old) were orally injected with saline, 4′-DMA-7,8-DHF and 7,8-DHF (5 mg/kg) for 21 days. Then BrdU (50 mg/kg) was i.p. injected. In 2 hours, the mice were perfused with 4% paraformaldehyde. Immunohistochemical staining was performed on formalin-fixed paraffin-embedded sections. Sections from brain were cut, deparaffinized in xylene and rehydrated in graded alcohols. The slides were boiled in 10 mM citric acid (pH 6.0) for 10 minutes followed by an incubation in 2 N HCl for 10 minutes in room temperature. The slides were then permeabilized and blocked with 1% BSA in 0.2% PBST. The incorporated BrdU were stained using anti-BrdU-FITC (Abcam, Inc; Cambridge, Mass.) at 4° C. for 16 hours. After three washes in PBS, the cells were stained with DAPI for another 10 minutes at room temperature. The slides were mounted with AquaMount (Lerner Laboratories; Pittsburgh, Pa.) containing 0.01% 1,4-diazobicyclo(2,2,2)octane and examined under a fluorescence microscope.
To test whether increasing TrkB activation by 4′-dimethylamino-7,8-dihydroxyflavone would elevate neurogenesis, adult male C57BL/6J mice were injected daily for 21 days with either vehicle, 7,8-DHF, or 4′-DMA-7,8-DHF (5 mg/kg). At the end of treatment (day 21), the animals were injected with BrdU (50 mg/kg, i.p.) to label the dividing cells and were sacrificed 2 hours later. […]

immobility time = assay: Forced swim test in TrkB F616A knockin mice with saline or 1NMPP1 pretreatment; assay type: in vivo; settings: drugs for five days, FIG. 36
Procedure: To assess whether the behavior responses by 7,8-DHF and its derivative are mediated by TrkB receptor, TrkB F616A knockin mice were utilized. The transgenic mice were subjected to saline or 1NMPP1 pretreatment (25 μM), respectively (drinking water provided one day prior to drug injection and maintained throughout whole experiment). The control and/or drugs were provided for five days. […] (Data presented in FIGS. 34, 35, and 36 as mean±SEM; *p<0.05 against vehicle, #P<0.01 against vehicle and ***P<0.0001 against vehicle, student t-test.)

TrkA = TrkA (Mus musculus, UniProt Q3UFB7); assay: Immunoblotting of brain lysates from forced swim test mice: TrkA; assay type: in vivo; design: from tissue; host or cells: mouse brain; settings: 5 mg/kg, 21 days oral, anti-p-TrkA 794, FIG. 35
Sequence of TrkA (Q3UFB7 34-799): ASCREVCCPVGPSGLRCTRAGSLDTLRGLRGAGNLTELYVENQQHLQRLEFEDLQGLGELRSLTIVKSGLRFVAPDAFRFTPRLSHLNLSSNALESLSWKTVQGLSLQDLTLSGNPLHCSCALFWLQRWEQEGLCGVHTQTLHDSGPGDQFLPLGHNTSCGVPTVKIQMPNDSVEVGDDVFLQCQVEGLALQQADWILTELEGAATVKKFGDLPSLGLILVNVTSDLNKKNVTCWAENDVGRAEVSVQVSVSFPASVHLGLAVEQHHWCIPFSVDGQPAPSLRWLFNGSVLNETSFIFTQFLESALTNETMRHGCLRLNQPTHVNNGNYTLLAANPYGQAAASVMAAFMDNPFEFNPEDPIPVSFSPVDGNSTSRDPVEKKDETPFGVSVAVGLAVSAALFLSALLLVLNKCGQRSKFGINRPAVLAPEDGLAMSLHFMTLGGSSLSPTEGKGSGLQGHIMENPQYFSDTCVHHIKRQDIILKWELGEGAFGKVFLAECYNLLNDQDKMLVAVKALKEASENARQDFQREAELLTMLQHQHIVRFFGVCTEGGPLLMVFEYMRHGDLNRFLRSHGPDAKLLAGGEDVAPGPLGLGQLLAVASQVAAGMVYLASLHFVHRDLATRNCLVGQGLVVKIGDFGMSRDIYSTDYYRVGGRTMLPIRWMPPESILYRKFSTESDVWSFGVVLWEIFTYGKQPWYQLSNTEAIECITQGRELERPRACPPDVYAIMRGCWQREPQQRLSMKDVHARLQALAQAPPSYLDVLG
Procedure: as §2

[9] = 1 mg/kg, oral injection, FIG. 28

Compound: COC(=O)[C@@]1(O)C[C@H]2O[C@]1(C)n1c3ccccc3c3c4c(c5c6ccccc6n2c5c31)C(=O)NC4 [K252a]
- blocking of BDNF-provoked TrkB phosphorylation (TrkB F616A): not
- blocking of 7,8-dihydroxyflavone-provoked TrkB phosphorylation (TrkB F616A; 0.5 μM 7,8-dihydroxyflavone): not
- blocking of BDNF-triggered Akt and Erk1/2 activation (Akt and Erk1/2): not
- effect on TrkB tyrosine phosphorylation in cells exposed to 7,8-dihydroxyflavone (TrkB [1]): blocked TrkB tyrosine phosphorylation

Compound: CN(C)c1ccc(-c2cc(=O)c3ccc(O)c(O)c3o2)cc1 [4′-DMA-7,8-DHF, 4′-Dimethylamino-7,8-dihydroxyflavone]
- TrkB activation (TrkB [2]; 500 nM, 30 min, FIG. 27 left): robustly provoked TrkB activation
- minimal concentration triggering TrkB activation (titration assay) (TrkB [2]; FIG. 27 right): 10 nM
- TrkB activity at 16 h (TrkB [3]; [9]): partially decayed
- time at which TrkB activation was elicited (TrkB [3]; [9]): 1 h
- time at which TrkB activity peaked (TrkB [3]; [9]): 8 h
- agonistic effect on TrkB relative to 7,8-DHF (TrkB [3]; mouse, in vivo): about 10 fold
- duration of agonistic effect in animals relative to 7,8-DHF (TrkB [3]; mouse, in vivo): sustained longer
- KA-caused caspase-3 activation ([4]; 5 mg/kg orally 4 hours before kainic acid (20 mg/kg), FIG. 31): markedly diminished
- protective effect after 1NMPP1 pretreatment ([4]; 1NMPP1 (25 μM) in drinking water, FIG. 31 top): abolished
- TrkB phosphorylation after 1NMPP1 pretreatment ([4]; FIG. 31, 2nd panel): notably blocked
- complete blood count (CBC) versus control saline-treated mice [5]: no significant difference
- toxicity to the mice [5]: neither compound was toxic
- inhibitory effect on caspase-3 activation at 10 nM (caspase-3 activation; 10 nM): more robust inhibitory effect than 7,8-DHF
- Glutamate-provoked caspase-3 activation (caspase-3 activation; 50 nM or higher concentrations, FIG. 29): substantially blocked
- swimming immobility (immobility): evidently reduced the immobility
- TrkB activation in mouse brain (TrkB [6]): provoke TrkB
- KA-induced neuronal apoptosis over time [7]: gradually decreased
- neurogenesis (BrdU) [8]: increased neurogenesis
- immobility time after 1NMPP1 treatment (immobility time; 1NMPP1 25 μM in drinking water): neither 4′-DMA-7,8-DHF nor 7,8-DHF had any significant effect
- immobility time, saline group (immobility time): substantially reduced the immobility time
- TrkA activation in mouse brain (TrkA): not TrkA activation
